#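 Following 48 hours of exposure in 96-well plates, responses at five concentrations were used to interpolate endpoints linearly. The concentration for 50% growth inhibition is given as GI50.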 Activity calls are given as the source filed them. Rule as the data show it: active = GI50 up to about 1.1 µM and inactive = higher.
# Key:
# Assay in all cases: NCI anticancer screen, dose series, 48 h
# [1] = system: Hs-578T
# [2] = system: HOP-92
# [3] = system: SF-539
# [4] = system: HCT-116
# [5] = system: OVCAR-3
# [6] = system: SF-295
# [7] = system: SW-620
# [8] = system: K562
# [9] = system: 786-0
# [10] = system: HL-60
# [11] = system: SNB-19
# [12] = system: NCI-H522
# [13] = system: UACC-62
# [14] = system: DU-145
# [15] = system: A549
# [16] = system: UO-31
# [17] = system: TK-10
# [18] = system: ACHN
# [19] = system: T47D
# [20] = system: MOLT-4
# [21] = system: RPMI-8226
# [22] = system: MCF7
# [23] = system: NCI/ADR-RES
# [24] = system: NCI-H226
# [25] = system: UACC-257
# [26] = system: HT-29
# [27] = system: KM12
# [28] = system: Malme-3M
# [29] = system: COLO 205
# [30] = system: A498
# [31] = system: PC-3
# [32] = system: U-251
# [33] = system: NCI-H23
# [34] = system: SNB-75
# [35] = system: M14
# [36] = system: MDA-N
# [37] = system: SN12C
# [38] = system: CAKI-1
# [39] = system: OVCAR-8
# [40] = system: IGROV-1
# [41] = system: OVCAR-5
# [42] = system: MDA-MB-231
# [43] = system: SK-OV-3
# [44] = system: SK-MEL-2
# [45] = system: HOP-62
# [46] = system: SK-MEL-5
# [47] = system: EKVX
# [48] = system: SK-MEL-28
# [49] = system: LOX IMVI
# [50] = system: SF-268
# [51] = system: CCRF-CEM
# [52] = system: MDA-MB-435
# [53] = system: HCT-15
# [54] = system: HCC 2998
# [55] = system: RXF 393
# [56] = system: OVCAR-4
# [57] = system: NCI-H460
structure (smiles),measurement,setting,value
CC(O)c1nc(C#N)c(N)o1 (centres undefined),GI50,[1],> 100 µM (inactive)
same,GI50,[2],> 100 µM (inactive)
same,GI50,[3],> 100 µM (inactive)
same,GI50,[4],> 100 µM (inactive)
same,GI50,[5],> 100 µM (inactive)
same,GI50,[6],> 100 µM (inactive)
same,GI50,[7],> 100 µM (inactive)
same,GI50,[8],> 100 µM (inactive)
same,GI50,[9],> 100 µM (inactive)
same,GI50,[10],> 100 µM (inactive)
same,GI50,[11],> 100 µM (inactive)
same,GI50,[12],> 100 µM (inactive)
same,GI50,[13],> 100 µM (inactive)
same,GI50,[14],> 100 µM (inactive)
same,GI50,[15],> 100 µM (inactive)
same,GI50,[16],> 100 µM (inactive)
same,GI50,[17],> 100 µM (inactive)
same,GI50,[18],> 100 µM (inactive)
same,GI50,[19],> 100 µM (inactive)
same,GI50,[20],> 100 µM (inactive)
same,GI50,[21],> 100 µM (inactive)
same,GI50,[22],> 100 µM (inactive)
same,GI50,[23],> 100 µM (inactive)
same,GI50,[24],> 100 µM (inactive)
same,GI50,[25],> 100 µM (inactive)
same,GI50,[26],> 100 µM (inactive)
same,GI50,[27],> 100 µM (inactive)
same,GI50,[28],> 100 µM (inactive)
same,GI50,[29],> 100 µM (inactive)
same,GI50,[30],> 100 µM (inactive)
same,GI50,[31],> 100 µM (inactive)
same,GI50,[32],> 100 µM (inactive)
same,GI50,[33],> 100 µM (inactive)
same,GI50,[34],> 100 µM (inactive)
same,GI50,[35],> 100 µM (inactive)
same,GI50,[36],> 100 µM (inactive)
same,GI50,[37],> 100 µM (inactive)
same,GI50,[38],> 100 µM (inactive)
same,GI50,[39],> 100 µM (inactive)
same,GI50,[40],> 100 µM (inactive)
same,GI50,[41],> 100 µM (inactive)
same,GI50,[42],> 100 µM (inactive)
same,GI50,[43],> 100 µM (inactive)
same,GI50,[44],> 100 µM (inactive)
same,GI50,[45],> 100 µM (inactive)
same,GI50,[46],> 100 µM (inactive)
same,GI50,[47],> 100 µM (inactive)
same,GI50,[48],> 100 µM (inactive)
same,GI50,[49],> 100 µM (inactive)
same,GI50,[50],> 100 µM (inactive)
same,GI50,[51],> 100 µM (inactive)
CCc1cc2c(c3c1CCCC3=O)CC1(Cc3ccc(C(=O)OC)cc3C1)C2 (centres undefined),GI50,[1],> 100 µM (inactive)
same,GI50,[2],29.1 µM (inactive)
same,GI50,[3],> 100 µM (inactive)
same,GI50,[4],37.9 µM (inactive)
same,GI50,[52],37.2 µM (inactive)
same,GI50,[5],> 100 µM (inactive)
same,GI50,[6],85.7 µM (inactive)
same,GI50,[7],> 100 µM (inactive)
same,GI50,[8],22 µM (inactive)
same,GI50,[9],84.5 µM (inactive)
same,GI50,[10],22.5 µM (inactive)
same,GI50,[11],> 100 µM (inactive)
same,GI50,[12],51.1 µM (inactive)
same,GI50,[14],> 100 µM (inactive)
same,GI50,[15],48.4 µM (inactive)
same,GI50,[53],> 100 µM
same,GI50,[16],48.3 µM (inactive)
same,GI50,[17],> 100 µM (inactive)
same,GI50,[18],25.6 µM (inactive)
same,GI50,[19],65.2 µM (inactive)
same,GI50,[20],24.9 µM (inactive)
same,GI50,[21],18.7 µM (inactive)
same,GI50,[22],24 µM (inactive)
same,GI50,[54],93.1 µM (inactive)
same,GI50,[23],76 µM (inactive)
same,GI50,[24],> 100 µM (inactive)
same,GI50,[25],32.1 µM (inactive)
same,GI50,[26],68.1 µM (inactive)
same,GI50,[27],30.6 µM (inactive)
same,GI50,[28],49.2 µM (inactive)
same,GI50,[29],47.9 µM (inactive)
same,GI50,[55],32.5 µM (inactive)
same,GI50,[30],> 100 µM (inactive)
same,GI50,[31],14.4 µM (inactive)
same,GI50,[32],82.8 µM (inactive)
same,GI50,[33],85.7 µM (inactive)
same,GI50,[34],26.7 µM (inactive)
same,GI50,[35],94.8 µM (inactive)
same,GI50,[36],> 100 µM (inactive)
same,GI50,[37],> 100 µM (inactive)
same,GI50,[38],96.6 µM (inactive)
same,GI50,[39],> 100 µM (inactive)
same,GI50,[56],40.9 µM (inactive)
same,GI50,[40],> 100 µM (inactive)
same,GI50,[41],> 100 µM (inactive)
same,GI50,[42],> 100 µM (inactive)
same,GI50,[57],> 100 µM (inactive)
same,GI50,[43],> 100 µM (inactive)
same,GI50,[44],> 100 µM (inactive)
same,GI50,[45],> 100 µM (inactive)
same,GI50,[46],15 µM (inactive)
same,GI50,[47],96.6 µM (inactive)
same,GI50,[48],64 µM (inactive)
same,GI50,[49],84.5 µM (inactive)
same,GI50,[50],> 100 µM (inactive)
same,GI50,[51],29.3 µM (inactive)
CC(=O)O[C@H]1C(=O)[C@@]2(C)C(C(OC(=O)c3ccccc3)[C@]3(O)CC(OC(=O)[C@H](OC(=O)CCC(=O)O)C(NC(=O)c4ccccc4)c4ccccc4)C(C)=C1C3(C)C)C1(OC(C)=O)COC1C[C@@H]2OC(=O)CCC(=O)O (some centres undefined),GI50,[16],79.1 µM (inactive)
same,GI50,[56],> 50.6 µM (inactive)

# — ChEMBL document CHEMBL1201862, “PubChem BioAssay data set” (2004)
